Data published in PubChem BioAssay AID248 (DTP/NCI, 2004).
“And” between values parts separate entries of the source, which are not always exact repeats. Identical values can stand only once. Toxic doses and inconclusive results are not listed. Cut-off read from the data, not from the text of the source: active = T/C of 150% or more; inactive = T/C below 125%.

Test system: L1210 leukemia ip in BDF1 mice, survival T/C
Test: NCI In Vivo Anticancer Drug Screen. Data for tumor model L1210 Leukemia (intraperitoneal) in B6D2F1 (BDF1) mice
Conditions: endpoint: mean survival time, higher = longer survival
Outline: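 Tumor cells were implanted, animals were treated, and survival was followed. The result divides the treated measurement by the vehicle-control measurement.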

[1] = dose: 100.0 mg/kg/injection, schedule: Q01DX001 (ip), vehicle: saline
[2] = dose: 200.0 mg/kg/injection, schedule: Q01DX001 (ip), vehicle: saline
[3] = dose: 400.0 mg/kg/injection, schedule: Q01DX001 (ip), vehicle: saline
[4] = dose: 100.0 mg/kg/injection, schedule: Q01DX009 (ip), vehicle: saline with Tween-80
[5] = dose: 100.0 mg/kg/injection, schedule: Q04DX003 (ip), vehicle: Klucel (hydroxypropylcellulose) (HPC)
[6] = dose: 200.0 mg/kg/injection, schedule: Q04DX003 (ip), vehicle: Klucel (hydroxypropylcellulose) (HPC)
[7] = dose: 400.0 mg/kg/injection, schedule: Q04DX003 (ip), vehicle: Klucel (hydroxypropylcellulose) (HPC)
[8] = dose: 100.0 mg/kg/injection, schedule: Q04DX003 (ip), vehicle: saline with Tween-80
[9] = dose: 200.0 mg/kg/injection, schedule: Q04DX003 (ip), vehicle: saline with Tween-80
[10] = dose: 400.0 mg/kg/injection, schedule: Q04DX003 (ip), vehicle: saline with Tween-80
[11] = dose: 200.0 mg/kg/injection, schedule: Q01DX009 (ip), vehicle: saline with Tween-80
[12] = dose: 400.0 mg/kg/injection, schedule: Q01DX009 (ip), vehicle: saline with Tween-80
[13] = dose: 100.0 mg/kg/injection, schedule: Q01DX009 (ip), vehicle: saline
[14] = dose: 100.0 mg/kg/injection, schedule: Q04DX003 (ip), vehicle: saline
[15] = dose: 200.0 mg/kg/injection, schedule: Q01DX009 (ip), vehicle: saline
[16] = dose: 200.0 mg/kg/injection, schedule: Q04DX003 (ip), vehicle: saline
[17] = dose: 400.0 mg/kg/injection, schedule: Q01DX009 (ip), vehicle: saline
[18] = dose: 400.0 mg/kg/injection, schedule: Q04DX003 (ip), vehicle: saline

Measured: T/C

CC1(C)OC2OC(CO)C(O)C2O1 (stereo not given)
inactive: [1] 101 % of control | [2] 97 % of control | [3] 98 % of control

C#CCN(CCCC)CCCC
inactive: dose: 100.0 mg/kg/injection, schedule: Q04DX002 (ip), vehicle: saline with Tween-80 95 % of control | dose: 200.0 mg/kg/injection, schedule: Q04DX002 (ip), vehicle: saline with Tween-80 100 % of control

COc1cc(/C=C2\C(=O)NC(=O)N(c3ccccc3)C2=O)cc(OC)c1OC
inactive: dose: 50.0 mg/kg/injection, schedule: Q01DX009 (ip), vehicle: saline with Tween-80 101 % of control | [4] 100 % of control

Cc1cc(N(CCCl)CCCl)ccc1C=Nc1ccccc1C(=O)O
inactive: dose: 50.0 mg/kg/injection, schedule: Q01DX001 (ip), vehicle: saline 94 % of control | dose: 50.0 mg/kg/injection, schedule: Q01DX009 (ip), vehicle: Klucel (hydroxypropylcellulose) (HPC) 106 % of control | dose: 100.0 mg/kg/injection, schedule: Q01DX001 (ip), vehicle: Klucel (hydroxypropylcellulose) (HPC) 94 % of control | [1] 105 % of control | dose: 100.0 mg/kg/injection, schedule: Q01DX009 (ip), vehicle: Klucel (hydroxypropylcellulose) (HPC) 113 % of control | dose: 200.0 mg/kg/injection, schedule: Q01DX001 (ip), vehicle: Klucel (hydroxypropylcellulose) (HPC) 103 % of control | [2] 103 % of control | dose: 200.0 mg/kg/injection, schedule: Q01DX009 (ip), vehicle: Klucel (hydroxypropylcellulose) (HPC) 120 % of control | dose: 400.0 mg/kg/injection, schedule: Q01DX001 (ip), vehicle: Klucel (hydroxypropylcellulose) (HPC) 101 % of control | [3] 105 % of control | dose: 400.0 mg/kg/injection, schedule: Q01DX009 (ip), vehicle: Klucel (hydroxypropylcellulose) (HPC) 98 % of control

C1CCC(C2CCCC[N-]2)[N-]C1.[Cl][Cu][Cl] (stereo not given)
inactive: dose: 1.56 mg/kg/injection, schedule: Q01DX009 (ip), vehicle: Klucel (hydroxypropylcellulose) (HPC) 95 % of control | dose: 3.13 mg/kg/injection, schedule: Q01DX009 (ip), vehicle: Klucel (hydroxypropylcellulose) (HPC) 102 % of control | dose: 6.25 mg/kg/injection, schedule: Q01DX009 (ip), vehicle: Klucel (hydroxypropylcellulose) (HPC) 86 % of control | [5] 109 % of control | [6] 95 % of control | [7] 101 % of control

COc1ccc2c(c1)C(=O)c1ccccc1-2
inactive: [8] 101 % of control | [9] 98 % of control | [10] 109 % of control

CC(C=O)CC1CCCCC1 (stereo not given)
inactive: [4] 97 % of control | [8] 95 % of control | [11] 95 % of control | [9] 97 % of control | [12] 95 % of control | [10] 95 % of control

C(=C/c1ccccc1)/C[P+](c1ccccc1)(c1ccccc1)c1ccccc1
inactive: dose: 1.25 mg/kg/injection, schedule: Q01DX009 (ip), vehicle: saline with Tween-80 97 % of control | dose: 2.5 mg/kg/injection, schedule: Q01DX009 (ip), vehicle: saline with Tween-80 94 % of control | dose: 5.0 mg/kg/injection, schedule: Q01DX009 (ip), vehicle: saline with Tween-80 98 % of control | dose: 5.0 mg/kg/injection, schedule: Q04DX003 (ip), vehicle: saline with Tween-80 98 % of control | dose: 10.0 mg/kg/injection, schedule: Q04DX003 (ip), vehicle: saline with Tween-80 86 % of control | dose: 20.0 mg/kg/injection, schedule: Q04DX003 (ip), vehicle: saline with Tween-80 90 % of control

CC12CCCCC1CC/C(=C\c1ccc(Cl)cc1)C2=O (stereo not given)
inactive: [1] 114 % of control | [2] 95 % of control | [3] 92 % of control

C(=C\c1ccccn1)/c1ccc2c(c1)OCO2
inactive: dose: 75.0 mg/kg/injection, schedule: Q01DX009 (ip), vehicle: saline 93 % of control | [1] 101 % of control | dose: 150.0 mg/kg/injection, schedule: Q01DX009 (ip), vehicle: saline 93 % of control | [2] 96 % of control | dose: 300.0 mg/kg/injection, schedule: Q01DX009 (ip), vehicle: saline 88 % of control | [3] 95 % of control

COC(=O)CC1C(=O)C(C)(C(=O)OC)CCC1c1ccc(OC)cc1 (stereo not given)
inactive: [13] 96 % of control | [14] 100 % of control | [15] 90 % of control | [16] 94 % of control | [17] 93 % of control | [18] 94 % of control

CCOC(=O)/C(=C\c1ccccn1)C(=O)c1cccnc1
inactive: [5] 102 % of control | [6] 105 % of control | [7] 118 % of control

CCCCCCCCCCCCCCCOc1c(Cl)c(Cl)c(Cl)c(Cl)c1Cl
inactive: [5] 95 % of control | [6] 90 % of control | [7] 95 % of control

COc1ccc(/C=C2\CSC/C(=C/c3ccc(OC)cc3)C2=O)cc1
inactive: [13] 91 % of control | [14] 95 % of control | [15] 95 % of control | [16] 94 % of control | [17] 87 % of control | [18] 97 % of control

CCCC/C=C1\CCCC(C)C1 (stereo not given)
inactive: dose: 100.0 mg/kg/injection, schedule: Q04DX002 (ip), vehicle: saline 101 % of control | dose: 200.0 mg/kg/injection, schedule: Q04DX002 (ip), vehicle: saline 101 % of control | dose: 400.0 mg/kg/injection, schedule: Q04DX002 (ip), vehicle: saline 97 % of control

Cc1ccc(OCCOc2ccc(C(=O)O)cc2)cc1
inactive: [5] 95 % of control | [6] 101 % of control | [7] 101 % of control

CCOC(=O)c1[nH]cnc1N
inactive: [1] 96 % of control | [2] 94 % of control | [3] 96 % of control

NC(=O)CC(N)C(=O)O (stereo not given)
inactive: [1] 96 % of control | [14] 98 % of control | dose: 200.0 mg/kg/injection, schedule: Q01DX001 (ip), vehicle: other 107 % of control | [2] 97 % of control and 104 % of control | dose: 200.0 mg/kg/injection, schedule: Q01DX009 (ip), vehicle: other 102 % of control | [11] 98 % of control | [15] 97 % of control | dose: 200.0 mg/kg/injection, schedule: Q04DX003 (ip), vehicle: other 102 % of control | [16] 106 % of control and 108 % of control | dose: 400.0 mg/kg/injection, schedule: Q01DX001 (ip), vehicle: other 107 % of control | [3] 98 % of control | dose: 400.0 mg/kg/injection, schedule: Q01DX009 (ip), vehicle: other 94 % of control | [12] 96 % of control | [17] 103 % of control | dose: 400.0 mg/kg/injection, schedule: Q04DX003 (ip), vehicle: other 96 % of control | [18] 106 % of control and 102 % of control | dose: 800.0 mg/kg/injection, schedule: Q01DX001 (ip), vehicle: other 105 % of control | dose: 800.0 mg/kg/injection, schedule: Q01DX001 (ip), vehicle: saline 106 % of control | dose: 800.0 mg/kg/injection, schedule: Q01DX009 (ip), vehicle: other 100 % of control | dose: 800.0 mg/kg/injection, schedule: Q01DX009 (ip), vehicle: saline with Tween-80 101 % of control | dose: 800.0 mg/kg/injection, schedule: Q01DX009 (ip), vehicle: saline 100 % of control | dose: 800.0 mg/kg/injection, schedule: Q04DX003 (ip), vehicle: other 103 % of control | dose: 800.0 mg/kg/injection, schedule: Q04DX003 (ip), vehicle: saline 101 % of control | dose: 1600.0 mg/kg/injection, schedule: Q01DX001 (ip), vehicle: other 112 % of control | dose: 1600.0 mg/kg/injection, schedule: Q01DX001 (ip), vehicle: saline 101 % of control | dose: 1600.0 mg/kg/injection, schedule: Q01DX009 (ip), vehicle: other 103 % of control | dose: 1600.0 mg/kg/injection, schedule: Q01DX009 (ip), vehicle: saline with Tween-80 98 % of control | dose: 1600.0 mg/kg/injection, schedule: Q01DX009 (ip), vehicle: saline 99 % of control | dose: 1600.0 mg/kg/injection, schedule: Q04DX003 (ip), vehicle: other 96 % of control | dose: 1600.0 mg/kg/injection, schedule: Q04DX003 (ip), vehicle: saline 100 % of control
